Data from US8765742B2, “Crystalline methylthioninium chloride hydrates” (Wista Laboratories Ltd., priority 2009, dated 2014).

Assay: Thermodynamic stability of the crystalline hydrate form at room temperature as a function of relative humidity
Format: physicochemical
Conditions: over the whole range of relative humidity

thermodynamic stability at room temperature: thermodynamically metastable
Compound: CN(C)c1ccc2nc3ccc(=[N+](C)C)cc-3sc2c1 [Form B, methylthioninium chloride dihydrate]
